Data reported in patent publication US6669945B1, “Universal T-cell epitopes for anti-malarial vaccines” (New York University, priority 1997, dated 2003).
Where two headings read alike, the source gives them in different places. Where no end group is shown, it is not given here. The star is where a group is joined. Biotin = O=C1N[C@H]2[C@H](CS[C@H]2CCCCC(=O)*)N1

Assays:
[1] = target: DQ 7 (DQA1*0501/DQB1*0301) (Homo sapiens, UniProt P01909+P01920); assay: Peptide competition assay, soluble DQ molecules; type: binding; settings: soluble DQ 7 (FIG. 3B)
[2] = target: T1, DQ 9 (DQA1*0201/DQB1*0303) (Homo sapiens, UniProt P01909+P01920, A45G/C70K/E183D/E77G/F237L/F77L/G63E/H199R/I129T/K197E/L178F/L74F/Q57E/Q76R/R75H/S185I/S97I/T217I/V73L/Y48F/Y58L); assay: Peptide competition assay, soluble DQ molecules; type: binding; settings: soluble DQ 9 (FIG. 3A)
T1 construct: made in house; host or cells: insect cells, baculovirus expression system

[3] = target: T2, DR 2 (DRB5*0101) (Homo sapiens, UniProt P01903+Q30154); assay: biochemical; type: binding; settings: DR 2 DRB5*0101, biotinyl-peptide MBP; read-out: Competitor Peptide IC50
T2 construct: expressed in transfected cells; host or cells: L cell transfectant L416.3

[4] = target: DR 11 (5) (DRB1*1101) (Homo sapiens, UniProt P01903+P01911, A100R/A169T/A87E/I96F/K41T/L162R/M171V/P40S/Q125H/Q178H/Q39Y/Q99D/R42S/S66Y/T262R/V115G/W38E); assay: biochemical; type: binding; settings: DR 11 (5) DRB1*1101, biotinyl-peptide TT831-843; read-out: Competitor Peptide IC50
[5] = target: DR 8 (DRB1*0801) (Homo sapiens, UniProt P01903+P01911, A100R/A103L/A169T/D86S/F76Y/H45Y/I96F/K41T/L162R/M171V/P40S/Q125H/Q178H/Q39Y/Q99D/R218S/R42G/S66Y/V115G/W38E); assay: biochemical; type: binding; settings: DR 8 DRB1*0801, biotinyl-peptide GYR(A)6L; read-out: Competitor Peptide IC50
[6] = target: T3, DR 1 (DRB1*0101) (Homo sapiens, UniProt P01903+P01911, A100R/D57E/F55L/F60I/F76Y/I96L/L162R/M171V/P40L/Q125E/R42F/V115G/Y59C); assay: biochemical; type: binding; settings: DR 1 DRB1*0101, biotinyl-peptide GFK(A)7; read-out: Competitor Peptide IC50
T3 construct: The class II molecules in the cell extracts were purified by immunoaffnity; endogenous in cells

[7] = target: T4, DR 4 (DRB1*0401) (Homo sapiens, UniProt P01903+P01911, A100K/A169T/F76Y/I96L/K127E/L162R/M171V/N62H/P40V/Q125Y/R42H/S133A/S149N/S66Y/V115G/V209L/W38E); assay: biochemical; type: binding
T4 construct: The class II molecules in the cell extracts were purified by immunoaffnity; endogenous in cells

[8] = target: T5, DR 3 (DRB1*0301) (Homo sapiens, UniProt P01903+P01911, A100K/A102G/A103R/A169T/F55Y/I96L/K41T/L162R/M171V/P40S/Q125H/Q178H/Q39Y/R42S/S66N/T106N/T262R/W38E/Y61H); assay: biochemical; type: binding; settings: DR 3 DRB1*0301, biotinyl-peptide IAYD(A)5; read-out: Competitor Peptide IC50
T5 construct: The class II molecules in the cell extracts were purified by immunoaffnity; endogenous in cells

[9] = target: DR 7 (DRB1*0701) (Homo sapiens, UniProt P01903+P01911, A100R/A102G/A103Q/D57E/D86V/E43K/F76Y/K127E/L162R/M171V/P40G/Q125H/Q99D/R33Q/R42Y/R54Q/S133A/S66F/T210M/V115G/Y107V/Y59L/Y89S); assay: biochemical; type: binding; settings: DR 7 DRB1*0701, biotinyl-peptide GFK(A)7, pH 5; read-out: Competitor Peptide IC50
[10] = target: DR 13 (DRB1*1301) (Homo sapiens, UniProt P01903+P01911, A100E/A169T/K41T/L162R/M171V/P40S/Q125H/Q178H/Q39Y/Q99D/R42S/S66N/T262R/W38E/Y61H); assay: biochemical; settings: soluble DR 13, indicator GFK(A)7 (FIG. 2B); read-out: IC50, inhibition of binding of biotinylated GFK(A)7
[11] = system: EBV-B cell line 9065 (DRB1*1301/DQB1*0603); assay: Flow cytometry binding of biotinylated peptides to EBV-B cells; design: species or system human; settings: biotinylated peptide, EBV-B 9065 cells
Description: For flow cytometry, EBV-B cells or L cells (2×10^5 cells), were incubated with an equal volume (100 μl) of biotinylated peptide (200 μg/ml) in each well of a U-bottomed 96-well plate. Following a 4-hour incubation on ice with gentle agitation, the unbound peptides were removed by washing. To increase the sensitivity of the fluorescent signal, two layers of FITC-Avidin were used to label the cells by incubating first with FITC-Avidin D, followed by biotinylated anti-Avidin D and again FITC-Avidin DCS (Vetor, Burlingame Calif.). Propidium Iodide (2.8 μg/ml) was added prior to FACS analysis to allow gating on viable cells.

CSCC[C@H](NC(=O)[C@H](CCCNC(=N)N)NC(=O)[C@H](CCSC)NC(=O)[C@H](CCCCN)NC(=O)[C@H](CO)NC(=O)[C@@H](NC(=O)[C@@H]1CCCN1C(=O)[C@H](CCCCN)NC(=O)[C@@H]1CCCN1C(=O)[C@@H]1CCCN1C(=O)[C@@H](N)CCCCN)C(C)C)C(=O)N[C@@H](C)C(=O)N[C@H](C(=O)N1CCC[C@H]1C(=O)N[C@@H](CC(C)C)C(=O)N[C@@H](CC(C)C)C(=O)N[C@@H](CCSC)C(=O)N[C@@H](CCC(N)=O)C(=O)N[C@@H](C)C(=O)O)[C@@H](C)O [CLIP83-101]
IC50 [1]: 0.5 µM | IC50 [2]: 0.5 µM

CC(C)[C@H](NC(=O)[C@H](CC(N)=O)NC(=O)[C@@H]1CCCN1C(=O)[C@H](CC(N)=O)NC(=O)[C@H](C)NC(=O)[C@H](CC(N)=O)NC(=O)[C@@H]1CCCN1C(=O)[C@H](CC(=O)O)NC(=O)[C@@H](NC(=O)[C@H](CC(N)=O)NC(=O)[C@@H]1CCCN1C(=O)[C@H](CC(N)=O)NC(=O)[C@H](C)NC(=O)[C@H](CC(N)=O)NC(=O)[C@@H]1CCCN1C(=O)[C@@H](N)CC(=O)O)C(C)C)C(=O)O [T1]
IC50 [3]: > 100 µM | IC50 [4]: > 100 µM | IC50 [5]: > 100 µM | IC50 [6]: > 100 µM | IC50 ([7]; DR 4 DRB1*0401, biotinyl-peptide UD4, read-out: Competitor Peptide IC50): > 100 µM | IC50 ([7]; soluble DR 4, indicator GFK(A)7 (FIG. 2A), read-out: IC50, inhibition of binding of biotinylated GFK(A)7): > 100 µM | IC50 [8]: > 100 µM | IC50 [9]: > 100 µM | IC50 [10]: > 100 µM

Biotinyl-T1: NH2 terminal biotinylated T1 peptide (Biotin-DPNANPNVDPNANPNV)
MFC [11]: could not be detected
